Source: patent publication US5466679A, “Carboranyl uridines and their use in boron neutron capture therapy” (The Ohio State University Research Foundation, priority 1994, dated 1995)
Several values for one entry are separate records, joined by “and”; a condition that tells them apart may be missing. Equal values may be shown once.

Columns and labels:
F98 glioma cells [1] = assay: Cellular uptake of boron in F98 glioma cells (16 hours incubation, DCP atomic emission spectroscopy); type: cell-based; details: for Boron Conc. /g, 16 hrs incubation: F98 Glioma Cells; for cellular uptake of boron at 16 hours: F98 glioma cells
Description: To illustrate the uptake and retention of the various boron-containing compounds as taught hereinabove, there were evaluated 5'-O-(o-carboran-1-ylmethyl)uridine of FIG. 1, and 3-O-(o-carboran-1-ylmethyl)-D-glucose of FIG. 2 in F98 glioma cells. The cellular uptake of boron at 16 hours for the compound of FIG. 1 was 83.8 micrograms of boron per gram of cells. The cellular uptake of boron at 16 hours for the compound of FIG. 2 was 65.2 micrograms of boron per gram of cells. […] This is an unexpected improvement in boron uptake and retention achieved by the present invention, relative to conventional Na2 B12 H11 SH.
(§1) Semiconfluent F98 glioma cells were incubated with the compound for 16 hours and after two washings with serum-free media, the cells were trypsinized, washed twice again and aliquots were analyzed for boron by Direct Current Plasma (DCP) Atomic Emission Spectroscopy. For the boron analyses there was used the following instrumentation and sample preparation for analysis:
(§2) A Spectraspan VB Direct Current Plasma-Atomic Emission Spectrometer, (Model #DCP-AES, Applied Research Laboratories, Brea, Calif.) was used for the boron determinations. This instrument combines a high resolution spectrometer with a high resolution Echelle grating and prism. The plasma source is argon gas heated to a temperature of 6000°-7000° K. The instrument settings used for analysis were: wave length 249.773 nm, argon flow 7L/min sleeve 50 psi, ceramic nebulizer 20 psi, entrance slits […], as predetermined by the manufacturer. The viewing height was […] between the arms of the "V" of the inverted "Y" configuration created by the three electrodes. The liquid uptake rate was approximately 2 mL/min. The operating power, once the plasma was established, was ^~ 40 V in the jet power supply with a 7 amp constant current output. With the operating parameters used no background correction was needed. Integration times and gain had been optimized by the manufacturer and were preset in the computer software. These particular parameters are not user alterable.
(§3) One to 2 mL of concentrated sulfuric acid, which was adequate for up to 1 g of tissue or cells, were added to 150×16 mm Pyrex culture tubes, and these were placed in a mineral oil bath, heated to 100° C. in an exhaust hood and stirred intermittently for one hour. Since no interference with the boron signal was found with the sulfuric acid-hydrogen peroxide cocktail, the amount of sulfuric acid used in digestion was determined by the ease of digestion for a particular sample, rather than by any specific ratio of sample weight to acid volume. The amount and type of tissue were critical factors for successful digestion. If the amount of tissue or cells approached 1 gram or more, there was more chance for overheating and loss of sample by bubbling. If sample size was small (<200 mg) there was more flexibility in terms of acid volume and digestion time.

F98 glioma cells [2] = assay: Persistence (retention) of boron in F98 glioma cells; type: cell-based
Description: as §1, §2, §3
The results for cellular uptake and retention (i.e. persistence studies) for certain compounds of this invention compared to the clinically-used Na2 B12 H11 SH compound are shown in the following TABLE 1.

[3] = Incubating Media […], + approximates the blank value for cells

5'-O-(o-Carboran-1-ylmethyl)uridine [FIG. 1]
Boron Conc. /g, 16 hrs incubation (F98 glioma cells [1]; Boron Conc. in Incubating Media 13.5 µg/ml): 88.9 g⁻¹ | cellular uptake of boron at 16 hours (F98 glioma cells [1]): 83.8 micrograms of boron per gram of cells | Persistence Studies, 12 hrs, B/g (F98 glioma cells [2]; Incubating Media […]): 23.9 B/g | Persistence Studies, 24 hrs, B/g (F98 glioma cells [2]; Incubating Media […]): 19.3 B/g | Persistence Studies, 48 hrs, B/g (F98 glioma cells [2]; 48 hrs, Incubating Media […]): 10.5 B/g

3-O-(o-Carborany-1-ylmethyl)-D-glucose [FIG. 2]
cellular uptake of boron at 16 hours (F98 glioma cells [1]): 65.2 micrograms of boron per gram of cells

sodium mercaptoundecahydro-closo-dodecaborane [Na2 B12 H11 SH]
Boron Conc. /g, 16 hrs incubation (F98 glioma cells [1]; Boron Conc. in Incubating Media 14.6 µg/ml): 4.3 g⁻¹ | Boron Conc. /g, 16 hrs incubation (F98 glioma cells [1]; Boron Conc. in Incubating Media 58.0 µg/ml): 7.2 g⁻¹ | Boron Conc. /g, 16 hrs incubation (F98 glioma cells [1]; Boron Conc. in Incubating Media 116.0 µg/ml): 26.7 g⁻¹ | cellular uptake of boron at 16 hours (F98 glioma cells [1]): about 2.0 micrograms of boron per gram of cells | Persistence Studies, 12 hrs, B/g (F98 glioma cells [2]; [3]): 3.1 B/g and 2.8 B/g and 3.4 B/g | Persistence Studies, 24 hrs, B/g (F98 glioma cells [2]; [3]): .4 B/g and .8 B/g and 1.8 B/g | time to attain background levels (rapidly removed) (F98 glioma cells [2]; F98 glioma cells): 6 to 12 h
